Assay results as given in patent publication US9051351B2, “Hepatocyte growth factor mimics as therapeutic agents” (Washington State University, priority 2011, dated 2015).
Like-named read-outs stand apart in the source and are kept apart here. Where a SMILES comes first, the peptide text is derived from it. [ ]: non-standard residue; d: D form. The star is where a group is joined. Hexanoyl = CCCCCC(=O)*; Ahx = NCCCCCC(=O)O

Assay: Dihexa pharmacokinetics in rats (IV, intraperitoneal)
Type: in vivo, rat
Procedure: Ethics approval for animal experimentation was obtained from Washington State University.
Dihexa solutions were prepared by suspending dry stock dihexa in DMSO at 1 mg/mL and subsequent serial dilutions in 50% DMSO or HPLC grade water for the final concentrations specified. Stock dihexa is kept in powder form and stored at −20° C. Quality control (QC) samples were prepared by spiking fresh rat plasma with an appropriate dilution of dihexa for the final concentration of dihexa specified, keeping a 10:1 ratio of plasma to dihexa solution (final DMSO concentration 5%). The compounds, Nle^1-Ang-IV and Nle-YI-(6) aminohexanoic amide, molecules very similar in structure and properties to dihexa, were used as internal standards and were prepared the same way.
The proteins present in the plasma samples were precipitated using three volumes of ice-cold acetonitrile. Internal standards were then added and the samples were vortexed for approximately 10 seconds. Samples were then centrifuged at 5000 RPM for 5 minutes. The supernatants were transferred to new tubes and stored until use at −20° C. Samples were then concentrated to a volume of approximately 100 ul. 200 ul HPLC grade water was added to each sample and the samples were transferred to autosampler vials.
Male Sprague Dawley rats were catheterized as described in the Animals and Surgical Procedures section. […] The typical injection volume was 200 μL yielding an initial estimated DMSO concentration in blood of 0.46%. After dosing, blood samples were collected as described in Table 7.
The blood samples were collected into polypropylene microcentrifuge tubes and cooled on ice for not more than 1 hour. The samples were centrifuged at 5000 RPM for 7 minutes and 80 μL plasma were transferred into previously prepared tubes containing 240 μL ice-cold acetonitrile. The samples were vortexed vigorously for 30 seconds and held on ice. 100 μg/mL Nle-YI-(6) aminohexanoic amide in 10 μL was used as an internal standard and added to each sample on ice.
10 μL of each serial dilution was then added to 90 μL of blank plasma for final concentrations of 0.01, 0.02, 0.05, 0.1, 0.2, 1, 10, 20, 50 and 100 μg/mL. 80 μL of each plasma sample was transferred to previously prepared tubes containing 240 μL ice-cold acetonitrile and vortexed vigorously. 10 μL containing 100 μg/mL Nle-YI-(6) aminohexanoic amide as an internal standard, was added to each sample on ice. The standard curve plasma samples were then stored at −20° C. and further processed alongside the pharmacokinetic study samples according to the method described above.
The analytical column that was used was n C18 (100 mm×2.1 mm). The mobile phase consisted of HPLC grade acetonitrile and water with 0.1% acetic acid. […] For MS analysis, a positive ion mode (SIM) was used to monitor the m/z of dihexa at […] (dihexa with the addition of a sodium adduct) and the m/z of Nle-YI-(6) aminohexanoic amide and Nle^1-AngIV (internal standards) at 513 and 541, respectively (both with sodium adducts). Samples were introduced using the autosampler and the injection volume was 50 ul. For the microsomal study, the m/z of verapamil was 455, the m/z of piroxicam was 332, and the m/z of 7-ethoxycoumarin was 191.
Pharmacokinetic analysis was performed using data from individual rats from which the mean and standard error of the mean (SEM) were calculated for each group.

[1] = male, Sprague-Dawley, rat, plasma, IV 10 mg/kg, rats, Mean ± SEM

CCCCCC(=O)N[C@@H](Cc1ccc(O)cc1)C(=O)N[C@H](C(=O)NCCCCCC(N)=O)[C@@H](C)CC [Dihexa, N-hexanoic-Tyr-Ile-(6)-aminohexanoic amide] (Hexanoyl-Tyr-Ile-[Ahx]-NH2)
Cp0 (IV 10 mg/kg, rats, Mean ± SEM): 87.3 ± 31.9 µg/mL
KE (IV 10 mg/kg, rats, Mean ± SEM): 0.00007 ± 0.00004 min⁻¹
half-life (male, Sprague-Dawley, rat, plasma, ip, 20 mg/kg, delivered intraperitoneally, Mean+/−SEM, N=4, read-out: half-life (t1/2) (converted)): 8.83 days
half-life (male, Sprague-Dawley, rat, plasma, iv, 10 mg/kg, IV 10 mg/kg, rats, Mean ± SEM, read-out: t½): 12.7 ± 5.41 days
half-life (male, Sprague-Dawley, rat, plasma, iv, 10 mg/kg, IV administration 10 mg/kg, rats, read-out: half-life (t1/2) (converted)): 12.7 days
Vd [1]: 54.4 ± 14.8 L/kg
clearance [1]: 2.6 ± 0.7 mL/min/kg
AUC(0-inf) (male, Sprague-Dawley, rat, plasma, IV 10 mg/kg, rats, Mean ± SEM, N = 3): 74500 ng·h/mL
